According to publication PMC8231504, “A Biophysical Insight of Camptothecin Biodistribution: Towards a Molecular Understanding of Its Pharmacokinetic Issues” (Pharmaceutics, 2021):
Like-named read-outs stand apart in the source and are kept apart here.

How the values were obtained:
HSA [1] = assay: Modelling biodistribution using in vitro parameters; parameters: species or system human; conditions: human, plasma proteins (calculated from in vitro Kbind to HSA); from Kbind to HSA, Equation (14); read-out: PPB (converted)
Experimental: (§1) The logD value obtained can be used with in silico descriptors to predict many biodistribution parameters using mathematical methods. As a result, the value of logD was used to predict CPT bioaccumulation (as expressed by the bioaccumulation constant, Kbioaccumulation), which is associated to tissue blood flow (Q) and its volume (V):(9) Kbioaccumulation=Q/V·logD
(§2) To determine if the drug is stored in adipose tissue, the adipose store index (ASI) of CPT was calculated using the following equation [28]:(10) ASI=1.81·logD−logD+0.40
(§3) Furthermore, the obtained distribution coefficient in the BPL model system—logD(BBB)—can be compared to logBB, according to Waterbeem and Kansy. The logarithm of the ratio of drug concentrations in brain and blood is known as logBB, and it represents the drug’s relative affinity variations between plasma proteins and brain tissue:(11) logBB=0.388·logDBBB−0.00618·Vm+1.359 where Vm is the membrane model system’s molar volume, determined from the individual lipid volumes.
(§4) The steady-state volume distribution (VDSS) is one of the most useful PK criteria for describing a drug’s biodistribution. The effect of the PPB, permeability, partitioning, and active transport on the drug’s physiological distribution is translated by this predictor. Based on human clinical PK evidence of a wide set of drugs (670 drugs), the first physiological statistical model of VDSS for predicting the biodistribution of neutral and basic drugs was proposed:(12) VDSS=VP·(1+RE/L)+fu·VP(VE/VP−RE/L)+VR·fu/fut where VP and VE are the plasma and extracellular fluid volumes with corresponding value in human of […]; RE/I represents the ratio of extravascular and intravascular proteins, and is strictly referred to the distribution of albumin, assuming an approximate value of 1.4; VR is defined as the physical volume into which the drug distributes minus the extracellular space (0.380 L∙Kg^−1); fu and fut are, respectively, the unbound drug fraction in plasma and the unbound fraction in tissues.
(§5) The fu values can be obtained by the following equation [33]:(13) fu=1−PPB/100 where PPB can be obtained from the in vitro values of Kbind:(14) PPB=100/1+1/CP·Kbind where CP is the physiological plasma protein concentration (750 μM).
(§6) Lastly, fut can be obtained by the following equation [32]:(15) logfut=−0.0289−0.1739·logD−0.8324·fi(7.4)+1.0400·logfu where fi(7.4) is the fraction of ionized drug at pH 7.4 which has been calculated considering the pH hydrolysis and conversion of CPT from lactone neutral form to the anionic form carboxylate reported.

[2] = as above; parameters: species or system human; conditions: for predicted off-target distribution / bioaccumulation: Equation (9)
Experimental: as §1, §2, §3, §4, §5, §6

BSA = system: BSA; parameters: method as in Li et al. [17]; conditions: ref Li et al. [17]; cited from earlier work
[3] = Distribution coefficient in membrane/aqueous system, normal cell membrane model; assay type: physicochemical; conditions: for LogD: normal cells membranes (DOPC, DOPE, DOPS, CHOL, SM)
Source text: (§7) Single-lipid liposomal membrane models composed of DMPC, or lipid mixture liposomal membrane models mimetic of breast cancer cell membrane—DOPC (25%), CHOL (15%), EPC (31.8%), DOPS (17%), DOPE (8%), cardiolipin (2.5%) and SM (0.7%)—mimetic of cell membrane—[…], DOPE (20%), DOPS (20%), CHOL (10%), and SM (10%)—and, blood–brain barrier (BBB) membrane constituted by the BPL—phosphocholine (PC) (12.6%), phosphatidyl ethanolamine (PE) (33.1%), PI (4.1%), phosphatidyl serine (PS) (18.5%), and PA (0.8%) were prepared by the classical thin film hydration method. Briefly, lipids were co-dissolved in chloroform:methanol (8:2, v/v) and the solvents were evaporated under a stream of nitrogen in a rotary evaporator (Buchi R-200; Sigma-Aldrich Corp., Buchs, Switzerland). The resultant dried lipid film was hydrated with buffer at temperature of 40 ± 0.1 °C and lipid colloidal dispersions were formed by alternating vortex and thermostatic bath (40 ± 0.1 °C). […]
(§8) The distribution coefficient (LogD) of CPT between membrane and aqueous buffered solution (pH 5.8 for breast cancer cell membrane model and pH 7.4 for cell membrane model and BBB membrane model) was determined by fluorescence spectroscopy and derivative UV-Vis spectroscopy. […] The samples contained a fixed concentration of CPT (2 × 10^−5M) and increasing concentrations of lipid suspension (0 to 1 × 10^−3 M for absorbance or 3 × 10^−3 M for fluorescence). […] The fluorescence spectra were also measured on a Perkin-Elmer LS-50B spectrofluorimeter. The emission spectra were obtained in 380–480 nm range with λexcitation = 250 nm and the excitation spectra were recorded in 220–400 nm range with λemission = 430 nm. […] The second and third derivative spectra of the absorbance UV-Vis spectra were determined to improve the resolution of spectral bands and to eliminate the spectral interferences due to light scattered by the lipid suspensions. […]
(§9) Because CPT is a fluorescent compound with spectral variations due to its distribution between the lipid/aqueous phases (e.g., λ shifts), logD of CPT can also be calculated using fluorescence spectroscopy. […]

[4] = Distribution coefficient in membrane/aqueous system, BBB membrane model; assay type: physicochemical; conditions: BBB endothelial membrane, pH 7.4, derivative spectroscopy
Source text: Single-lipid liposomal membrane models composed of DMPC, or lipid mixture liposomal membrane models mimetic of breast cancer cell membrane—DOPC (25%), CHOL (15%), EPC (31.8%), DOPS (17%), DOPE (8%), cardiolipin (2.5%) and SM (0.7%)—mimetic of cell membrane—DOPC (45%), DOPE (20%), DOPS (20%), CHOL (10%), and SM (10%)—and, blood–brain barrier (BBB) membrane constituted by the BPL—phosphocholine (PC) (12.6%), phosphatidyl ethanolamine (PE) (33.1%), PI (4.1%), phosphatidyl serine (PS) (18.5%), and PA (0.8%) were prepared by the classical thin film hydration method. […]
The distribution coefficient (LogD) of CPT between membrane and aqueous buffered solution (pH 5.8 for breast cancer cell membrane model and pH 7.4 for cell membrane model and BBB membrane model) was determined by fluorescence spectroscopy and derivative UV-Vis spectroscopy. […] The samples contained a fixed concentration of CPT (2 × 10^−5M) and increasing concentrations of lipid suspension (0 to 1 × 10^−3 M for absorbance or 3 × 10^−3 M for fluorescence). […] The fluorescence spectra were also measured on a Perkin-Elmer LS-50B spectrofluorimeter. The emission spectra were obtained in 380–480 nm range with λexcitation = 250 nm and the excitation spectra were recorded in 220–400 nm range with λemission = 430 nm. […]

[5] = Literature in vivo steady-state volume of distribution; conditions: human, converted from 190 ± 46 L·m^−2 with body surface 1.9 m^2 and body weight 70 kg, ref [71], read-out: in vivo VDSS
[6] = Distribution coefficient in membrane/aqueous system, cancer cell membrane model; assay type: physicochemical; conditions: for LogD: cancer cells membranes, 37 °C
Source text: as §7, §8, §9

[7] = parameters: method as in PMID 30654016; conditions: at lower concentrations (5 µM); ref [38]; cited from earlier work
[8] = fluorescence spectroscopy, ref [18],[47],[48] (table), [18],[49],[50]; cited from earlier work
HSA [9] = biological target: HSA (Homo sapiens, UniProt P02768); assay: Plasma protein binding by steady-state fluorescence quenching
HSA (Homo sapiens, UniProt P02768), sequence (P02768 25-609): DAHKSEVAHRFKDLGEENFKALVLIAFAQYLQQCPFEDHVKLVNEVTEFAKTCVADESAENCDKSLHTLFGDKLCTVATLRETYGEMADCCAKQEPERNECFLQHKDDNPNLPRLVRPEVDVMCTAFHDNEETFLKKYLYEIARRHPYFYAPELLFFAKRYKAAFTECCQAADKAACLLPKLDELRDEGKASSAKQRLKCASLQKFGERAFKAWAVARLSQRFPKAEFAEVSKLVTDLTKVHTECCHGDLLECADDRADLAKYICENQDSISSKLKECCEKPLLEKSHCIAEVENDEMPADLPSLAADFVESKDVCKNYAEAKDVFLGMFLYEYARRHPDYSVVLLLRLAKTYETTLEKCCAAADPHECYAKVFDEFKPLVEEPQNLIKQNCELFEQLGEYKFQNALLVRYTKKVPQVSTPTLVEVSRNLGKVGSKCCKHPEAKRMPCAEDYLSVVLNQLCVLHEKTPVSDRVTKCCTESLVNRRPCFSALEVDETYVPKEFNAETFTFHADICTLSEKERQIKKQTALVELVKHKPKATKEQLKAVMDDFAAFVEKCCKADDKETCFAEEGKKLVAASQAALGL
Experimental: The fluorescence excitation and emission spectra of increasing CPT concentrations (0 to 3 × 10^−4 M) with a constant HSA concentration (2.0 × 10^−6 M) were acquired at 37.0 ± 0.1 °C (Perkin-Elmer LS-50B spectrofluorimeter, Waltham, USA), with excitation at 280 nm and emission at 342 nm, each with 5 nm slits. The following binding isotherm equation can be used to explain the quenching of HSA fluorescence caused by increasing CPT concentrations:(6) % Quenching=ymáx·n/1+Kdiss/[CPT] where ymax is the maximum fluorescence quenching measured, n is the number of binding sites of HSA to CPT, and Kdiss is the dissociation constant (i.e., the inverse of binding constant, Kbind). In addition, the following equation expresses the relationship between the Kdiss value and the Gibbs free energy ( Δ G) of complex binding:(7) ΔGbind=[…] where R is the ideal gas constant and T is the temperature in Kelvin (K).

[10] = parameters: method as in PMID 30869853, PMID 21430952; conditions: DMPC or DMPG, pH 7.4, fluorescence anisotropy; ref [16],[45],[46]; cited from earlier work
[11] = parameters: method as in doi:10.1021/jp035260s; conditions: DOPG, pH 7.4, fluorescence anisotropy; ref [47]; cited from earlier work
C26 colon carcinomas = system: C26 colon carcinomas; parameters: method as in PMID 18384903; conditions: 2.5 mg∙Kg^−1 dose of CPT; ref [79]; cited from earlier work
[12] = parameters: method as in doi:10.1021/jp035260s; conditions: DOPC, pH 7.4, fluorescence anisotropy; ref [47]; cited from earlier work
[13] = parameters: method as in PMID 22520977; conditions: after 2 h in contact with human blood; ref [3]; cited from earlier work

CC[C@@]1(O)C(=O)OCc2c1cc1n(c2=O)Cc2cc3ccccc3nc2-1 [CPT, Camptothecin]
fraction unbound (HSA [1]): 0.0805
adipose storage index (ASI) ([2]; Equation (10), from logD): 2.53 ± 0.12
LogBB (brain accumulation index) ([2]; Equation (11), from logD in BBB endothelial membrane): 2.76 ± 0.06
predicted off-target distribution / bioaccumulation ([2]; adrenal glands, from logD in normal cell membrane model): 61.44%
free drug available for distribution to the tissues ([2]; from PPB): 8.05%
predicted off-target distribution / bioaccumulation ([2]; heart): 3.07%
fraction unbound ([2]; human, plasma (calculated from PPB), Equation (13), read-out: unbound fraction in plasma fu): 0.081
fraction unbound ([2]; human, tissues (predicted), Equation (15), read-out: unbound fraction in tissues fut): 0.0054
Vd ([2]; human, Equation (12), from in vitro logD and PPB, read-out: VDSS (steady-state volume of distribution)): 5.75 ± 0.932 L/kg
predicted off-target distribution / bioaccumulation ([2]; kidneys): 3.07%
predicted off-target distribution / bioaccumulation ([2]; thyroid): 30.72%
binding constant Kbind with BSA (BSA): 37200 M⁻¹
average logD ([3]; average over normal and cancer cell membrane models and both methods): 2.89 ± 0.23
LogD ([3]; pH 7.4, derivative UV-Vis spectroscopy): 2.78 ± 0.28 ^ns
LogD ([3]; pH 7.4, fluorescence spectroscopy): 2.63 ± 0.15 ^ns
LogD [4]: 3.64 ± 0.15
Vd [5]: 5.16 ± 1.25 L/kg
LogD ([6]; pH 5.8, derivative UV-Vis spectroscopy): 3.14 ± 0.13 ^ns
LogD ([6]; pH 5.8, fluorescence spectroscopy): 3.01 ± 0.31 ^ns
logD in the cancer cell membrane model ([6]; mean of the two methods, pH 5.8): 3.08 ± 0.22
Papp [7]: 30 ×10⁻⁶ cm/s
LogD / logP in octanol:water [8]: 1.73 ± 0.08
Kd (HSA [9]; HSA 2.0 × 10^−6 M, 37 °C, read-out: dissociation constant Kdiss): 65.7 µM
binding constant Kbind (HSA [9]; HSA, 37 °C): 1.52 ± 0.26 × 10^4 M^−1
number of binding sites n (HSA [9]; HSA, 37 °C): 1
Gibbs free energy ΔGbind (HSA [9]; HSA, Equation (7)): -5.93 ± 0.10 kcal/mol
LogD [10]: 2.00 ± 0.16
LogD [11]: 1.97 ± 0.05
AUC (blood plasma) (C26 colon carcinomas): 1100 ng·h/mL
LogD [12]: 1.55 ± 0.05
CPT lactone form remaining [13]: 5%
